On the set-up of data set [1]: species or system SD male rats. The note with it: rat, in vivo. As to the method:
X represents overlapping ◯ and ●.
Dermatan sulfate derived from crest and dermatan sulfate derived from bovine intestine (see reference example 2 in WO95/09188) were administered into tail vein of SD male rats and changes with the passage of time in the residual level of dermatan sulfate in blood were determined and the residual rate thereof to the initial level of dermatan sulfate on administration was calculated (see example 1 in the above International publication). […] Thus, since dermatan sulfate derived from crest or dermatan sulfate with the equivalent physical properties has a long life span in blood and sustained anti-inflammatory effects, a large dosage thereof is not required for the treatment and dermatan sulfate derived from crest or equivalent thereof is the most preferable.

The subject of another data set is Cri; CD-1 mice. In words: Toxicity test by single intravenous administration. Type of data set: in vivo. As to the method: Toxicity test by single intravenous administration of dermatan sulfate(1) Experimental method
As experimental animals, five weeks old female and male Cri; CD-1 mice (Japanese Charles-river (n=5 each) were used. The DS solution obtained by the same method as in reference example 1 was made isotonic using sterile distilled water and sterile physiological saline solution and single 2000 mg/kg of DS was administered intravenously into tail vein in mice and clinical observations were carried out for 14 days.

Data set [2] relates to MRL (1 pr/1 pr) mice with nephritis. In words: Mice SLE model-1: histopathological observations of kidney (MC and DP glomeruli). Type of data set: in vivo. Particulars: 4 weeks. How it is done:
As SLE model, 17 weeks old male MRL (1 pr/1 pr) mice were used, while C57BL/6 mice with the same age and sex were used as normal control. As agents, DS or low molecular weight heparin (LMWHep, Fragmin) prepared according to a method in reference example 1 was dissolved in sterile physiological saline solution on use.
(§1) Blood samples were taken from 17 weeks old mice, only MRL mice with nephritis whose level of blood urea nitrogen (BUN) were high at the nearly same level were selected and divided into 4 groups, each group consisting of 5 mice. Sterile physiological saline solution was administered in one group as non-treated control group, 5 mg/kg of DS, 25 mg/kg of DS and 1 mg/kg of LMWHep were administered into tail vein in another 3 groups, once per day and five times per week. […] Serum and plasma taken were used for determination of BUN, creatinine and fibrinogen and kidneys were used for histopathological examination.

The test system is the same in data set [3]. Briefly: Mice SLE model-1: histopathological change of renal artery (angiitis). The format is in vivo. Particulars: for angiitis intermediate degree, number of individual / angiitis serious degree, number of individual / angiitis slight degree, number of individual: 5 mice.
The test system is the same in data set [4]. Briefly: Mice SLE model-1: fibrinogen level in blood. Type of data set: in vivo.
Data set [5] relates to Lewis rats with experimental allergic encephalomyelitis. Briefly: Rat experimental allergic encephalomyelitis (EAE), multiple sclerosis model. The format is in vivo. Particulars: 5 mg DS i.p. once a day since third day after immunization.
Data set [6] relates to MRL (1 pr/1 pr) mice with nephritis. Briefly: Mice SLE model-1: effects on renal function (serum BUN, creatinine). The format is in vivo. The note with it: once per day, five times per week, 4 weeks. How it is done: as §1, with “As agents, DS or low molecular weight heparin ([…], Fragmin) prepared according to a method in reference example 1 was dissolved in sterile physiological saline solution on use. Blood” for “Blood”, “LMWHep” left out, “examination. […] In FIG. 3b, * means that there is a significant difference with p<0.05 from non-treated control group by Bonferroni examination. Both of BUN and creatinine level of non-treated control group were higher than those of normal control group(C57BL/6), which made it clear that renal function thereof was impaired.” for “examination.”

Data set [7] has as its system MRL (1 pr/1 pr) mice. Particulars: single administration of 20 mg/kg endoxan i.p. once a week, 8 weeks.
Method: (§2) Ten weeks old male MRL (1 pr/1 pr) mice was used as experimental animals and DS prepared according to reference example 1 was used as an agent by dissolving it in sterile physiological saline solution on use.
(§3) Sterile physiological saline solution was administered in negative control group (non-treated group).
At the age of 10 weeks old, body weight of animals were weighed and blood samples were taken for determination of serum BUN (urea nitrogen) and serum creatinine. […] DS was daily, 5 times per week (neither on Saturday or on Sunday), administered into tail vein in mice using 1 ml disposable syringe at the dose level of 25 mg/kg/day. […] During administration, animals were daily observed carefully. After 8 weeks, blood samples were taken under anesthesia with Nembutal and animals were killed by exsanguination. Then, serum creatinine level, spleen weight and the weight of mesenteric lymph node were measured.
Data set [8] concerns MRL (1 pr/1 pr) mice. The note with it: single administration of 10 mg/kg endoxan.
Method: as §2, §3
DS was daily, 5 times per week (neither on Saturday or on Sunday), administered into tail vein in mice using 1 ml disposable syringe at the dose level of 25 mg/kg/day. […] During administration, animals were daily observed carefully. After 8 weeks, blood samples were taken under anesthesia with Nembutal and animals were killed by exsanguination. Then, serum creatinine level, spleen weight and the weight of mesenteric lymph node were measured.
Treatment for enlarged spleen in MRL mice was tried. […] The dose of DS was 25 mg/kg in any case.

Take dermatan sulfate [reference compound]: the “residual rate of dermatan sulfate in blood” value in [1] is reported as “scarcely detected”.

Turning to sodium salt of dermatan sulfate [DS], in the data set with Cri; CD-1 mice (single 2000 mg/kg i.v. tail vein, 5 female and 5 male mice), the “death after 14 days observation” value is recorded as “no death”. Besides, the lethal dose result in the data set on Cri; CD-1 mice (single i.v. tail vein, mice, 14 days observation) is “more than 2000 mg/kg”. Besides, in data set [2] (5 mg/kg), the “ratio of DP glomeruli (number of DP glomeruli/total number of glomeruli)” value is recorded as “clearly decreased in a dose-dependent manner” and the “ratio of MC glomeruli (number of MC glomeruli/total number of glomeruli)” value was “slightly increased”. Further, in data set [2] (25 mg/kg), the “ratio of DP glomeruli (number of DP glomeruli/total number of glomeruli)” value is given as “clearly decreased in a dose-dependent manner” and the “ratio of MC glomeruli (number of MC glomeruli/total number of glomeruli)” value is reported as “significantly increased”. In addition, in data set [1], the “residual rate of dermatan sulfate in blood” value is “about 10%” and the “residual rate of dermatan sulfate in blood, compared with dermatan sulfate derived from bovine intestine” value is reported as “twice as much”. Further, in [3] (5 mg/kg group), the “histopathological evaluation of angiitis of renal artery, versus non-treated group” value is recorded as “not a big difference”; the “angiitis intermediate degree, number of individual” value (“angiitis intermediate degree” below) is recorded as 2; the “angiitis serious degree, number of individual” value (“angiitis serious degree, number” below) is recorded as 3; the “angiitis slight degree, number of individual” value (shortened to “angiitis slight degree, number”) came out at 0. Further, in [3] (25 mg/kg group), the “histopathological evaluation of angiitis of renal artery” value is “individual with serious degree decreased and individual with intermediate and slight degree increased”; the “angiitis intermediate degree” value came out at 3; the “angiitis serious degree, number” value amounted to 1; the “angiitis slight degree, number” value was found to be 1. Further, the “increase of fibrinogen level in blood” value in data set [4] (5 mg/kg group) is “suppressed in a dose-dependent manner”. The “increase of fibrinogen level in blood” value in data set [4] (25 mg/kg group) was “suppressed in a dose-dependent manner”. Besides, the mean onset day in data set [5] worked out at 9.5±0.5. The same molecule yielded an accumulated clinical scores in [5] (p<0.05 vs control group) of 12.4±1.7. Also, in data set [6] (5 mg/kg tail vein), the BUN level entry was “slightly improved” and the creatinine level result is reported as “slightly improved”. Also, the BUN level entry in [6] (25 mg/kg tail vein) is recorded as “slightly improved”. In addition, the creatinine level result in [6] (25 mg/kg tail vein, p<0.05 vs non-treated control) is given as “significantly improve”.

Consider “low molecular weight heparin [LMWHep, reference compound]”, for which, in [2] (1 mg/kg), the “ratio of DP glomeruli (number of DP glomeruli/total number of glomeruli)” value is given as “such an effect was not recognized” and the “ratio of MC glomeruli (number of MC glomeruli/total number of glomeruli)” value is reported as “slightly increased”. In [3] (1 mg/kg group), the “histopathological evaluation of angiitis of renal artery, versus non-treated group” value was “not a big difference”; the “angiitis intermediate degree” value stood at 1; the “angiitis serious degree, number” value stood at 4; the “angiitis slight degree, number” value worked out at 0. For the same molecule, the “suppression of increase of fibrinogen level in blood” value in [4] (1 mg/kg group) is given as “did not scarcely recognized”. In [6] (1 mg/kg tail vein), the BUN level entry is “slightly improved” and the creatinine level entry is “slightly improved”.

On to `O=P1(N(CCCl)CCCl)NCCCO1` (stereo not drawn) [endoxan, Cyclophosphamide], for which, in the data set on MRL (1 pr/1 pr) mice [7], the “serum creatinine level, compared with negative control group” value is recorded as “did not exhibit any effect”. Moreover, in the data set on MRL (1 pr/1 pr) mice [8], the “spleen weight, compared with negative control group” value is recorded as “did not give any effect”.

Values taken from US6537977B1, “Anti-inflammatory agent” (Seikagaku Corporation, priority 1995, dated 2003).
